Reference: the kinase profiling compilation of Christmann-Franck et al. (2016)

What was measured:
Assay in all cases: KINOMEscan competition binding
Settings in all cases: compound 10.0 µM
ALK (human) = ALK (human) (UniProt Q9UM73)
ANKK1 (human) = ANKK1 (human) (UniProt Q8NFD2)
AURKB (human) = AURKB (human) (UniProt Q96GD4)
CAMK1D (human) = CAMK1D (human) (UniProt Q8IU85)
CLK4 (human) = CLK4 (human) (UniProt Q9HAZ1)
CSNK2A2 (human) = CSNK2A2 (human) (UniProt P19784)
DCLK2 (human) = DCLK2 (human) (UniProt Q8N568)
DYRK1B (human) = DYRK1B (human) (UniProt Q9Y463)
EPHA7 (human) = EPHA7 (human) (UniProt Q15375)
EPHB3 (human) = EPHB3 (human) (UniProt P54753)
FLT3 (human) = FLT3 (human) (UniProt P36888)
[1] = test system: FLT3 (human), P36888 [ITD]
[2] = test system: FLT3 (human), P36888 [N841I]
HIPK1 (human) = HIPK1 (human) (UniProt Q86Z02)
KDR (human) = KDR (human) (UniProt P35968)
LATS1 (human) = LATS1 (human) (UniProt O95835)
MAP4K5 (human) = MAP4K5 (human) (UniProt Q9Y4K4)
MAPK11 (human) = MAPK11 (human) (UniProt Q15759)
MAPK13 (human) = MAPK13 (human) (UniProt O15264)
MARK2 (human) = MARK2 (human) (UniProt Q7KZI7)
MKNK1 (human) = MKNK1 (human) (UniProt Q9BUB5)
MYLK2 (human) = MYLK2 (human) (UniProt Q9H1R3)
NEK1 (human) = NEK1 (human) (UniProt Q96PY6)
PAK2 (human) = PAK2 (human) (UniProt Q13177)
PIP4K2B (human) = PIP4K2B (human) (UniProt P78356)
PLK1 (human) = PLK1 (human) (UniProt P53350)
PRKAA1 (human) = PRKAA1 (human) (UniProt Q13131)
PRKCE (human) = PRKCE (human) (UniProt Q02156)
PRKG1 (human) = PRKG1 (human) (UniProt Q13976)
PRKX (human) = PRKX (human) (UniProt P51817)
PTK6 (human) = PTK6 (human) (UniProt Q13882)
RIOK2 (human) = RIOK2 (human) (UniProt Q9BVS4)
ROS1 (human) = ROS1 (human) (UniProt P08922)
RPS6KA5 KD1 (human) = RPS6KA5 KD1 (human) (UniProt O75582)
RPS6KA5 KD2 (human) = RPS6KA5 KD2 (human) (UniProt O75582)
STK17B (human) = STK17B (human) (UniProt O94768)
STK38L (human) = STK38L (human) (UniProt Q9Y2H1)
TAOK1 (human) = TAOK1 (human) (UniProt Q7L7X3)
TLK2 (human) = TLK2 (human) (UniProt Q86UE8)
TYRO3 (human) = TYRO3 (human) (UniProt Q06418)

CLK4 (human), sequence (Q9HAZ1 whole entry, looked up): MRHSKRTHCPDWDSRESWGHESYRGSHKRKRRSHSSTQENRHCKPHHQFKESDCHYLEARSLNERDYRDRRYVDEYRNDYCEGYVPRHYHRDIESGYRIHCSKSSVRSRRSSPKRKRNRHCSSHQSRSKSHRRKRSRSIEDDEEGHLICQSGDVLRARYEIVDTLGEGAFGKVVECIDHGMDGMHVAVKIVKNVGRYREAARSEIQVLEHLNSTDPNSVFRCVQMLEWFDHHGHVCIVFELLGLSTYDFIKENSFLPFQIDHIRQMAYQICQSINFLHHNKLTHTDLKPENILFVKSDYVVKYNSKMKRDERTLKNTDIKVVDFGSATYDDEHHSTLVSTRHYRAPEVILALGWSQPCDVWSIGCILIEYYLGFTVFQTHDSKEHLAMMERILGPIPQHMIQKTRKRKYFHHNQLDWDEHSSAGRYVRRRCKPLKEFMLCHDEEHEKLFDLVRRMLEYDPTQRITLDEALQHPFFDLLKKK
DCLK2 (human), sequence (Q8N568 whole entry, looked up): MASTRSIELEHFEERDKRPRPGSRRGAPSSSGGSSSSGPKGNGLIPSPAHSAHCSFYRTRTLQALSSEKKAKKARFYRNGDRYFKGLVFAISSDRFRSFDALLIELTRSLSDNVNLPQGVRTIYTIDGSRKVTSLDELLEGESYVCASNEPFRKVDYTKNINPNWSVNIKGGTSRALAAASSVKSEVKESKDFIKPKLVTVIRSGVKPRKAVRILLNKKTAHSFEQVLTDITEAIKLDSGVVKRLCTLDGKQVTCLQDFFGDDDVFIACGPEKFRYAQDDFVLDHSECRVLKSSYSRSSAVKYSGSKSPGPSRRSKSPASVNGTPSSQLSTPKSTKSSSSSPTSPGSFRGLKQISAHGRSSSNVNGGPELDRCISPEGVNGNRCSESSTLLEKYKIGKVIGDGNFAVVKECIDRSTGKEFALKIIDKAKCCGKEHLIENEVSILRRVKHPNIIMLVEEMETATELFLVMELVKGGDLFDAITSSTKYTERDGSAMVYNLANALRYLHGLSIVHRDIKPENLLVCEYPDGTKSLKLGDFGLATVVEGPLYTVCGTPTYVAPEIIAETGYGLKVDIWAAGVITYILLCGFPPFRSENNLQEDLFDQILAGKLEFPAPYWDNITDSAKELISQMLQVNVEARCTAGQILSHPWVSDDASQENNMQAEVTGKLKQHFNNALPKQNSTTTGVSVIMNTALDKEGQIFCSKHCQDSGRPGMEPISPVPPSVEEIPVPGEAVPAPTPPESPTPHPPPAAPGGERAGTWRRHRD
PTK6 (human), sequence (Q13882 whole entry, looked up): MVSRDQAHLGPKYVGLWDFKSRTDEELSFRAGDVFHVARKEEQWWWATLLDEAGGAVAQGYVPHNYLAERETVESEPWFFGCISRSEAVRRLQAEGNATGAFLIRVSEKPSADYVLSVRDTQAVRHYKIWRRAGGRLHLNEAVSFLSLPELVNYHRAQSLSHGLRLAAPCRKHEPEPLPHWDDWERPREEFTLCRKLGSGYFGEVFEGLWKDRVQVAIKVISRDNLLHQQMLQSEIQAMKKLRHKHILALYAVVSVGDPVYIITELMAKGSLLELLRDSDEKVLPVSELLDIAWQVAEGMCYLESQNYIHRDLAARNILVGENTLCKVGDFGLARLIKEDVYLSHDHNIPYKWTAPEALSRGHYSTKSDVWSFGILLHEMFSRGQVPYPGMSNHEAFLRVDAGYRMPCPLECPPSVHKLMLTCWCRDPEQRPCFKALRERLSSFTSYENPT
ALK (human), sequence (Q9UM73 whole entry, looked up): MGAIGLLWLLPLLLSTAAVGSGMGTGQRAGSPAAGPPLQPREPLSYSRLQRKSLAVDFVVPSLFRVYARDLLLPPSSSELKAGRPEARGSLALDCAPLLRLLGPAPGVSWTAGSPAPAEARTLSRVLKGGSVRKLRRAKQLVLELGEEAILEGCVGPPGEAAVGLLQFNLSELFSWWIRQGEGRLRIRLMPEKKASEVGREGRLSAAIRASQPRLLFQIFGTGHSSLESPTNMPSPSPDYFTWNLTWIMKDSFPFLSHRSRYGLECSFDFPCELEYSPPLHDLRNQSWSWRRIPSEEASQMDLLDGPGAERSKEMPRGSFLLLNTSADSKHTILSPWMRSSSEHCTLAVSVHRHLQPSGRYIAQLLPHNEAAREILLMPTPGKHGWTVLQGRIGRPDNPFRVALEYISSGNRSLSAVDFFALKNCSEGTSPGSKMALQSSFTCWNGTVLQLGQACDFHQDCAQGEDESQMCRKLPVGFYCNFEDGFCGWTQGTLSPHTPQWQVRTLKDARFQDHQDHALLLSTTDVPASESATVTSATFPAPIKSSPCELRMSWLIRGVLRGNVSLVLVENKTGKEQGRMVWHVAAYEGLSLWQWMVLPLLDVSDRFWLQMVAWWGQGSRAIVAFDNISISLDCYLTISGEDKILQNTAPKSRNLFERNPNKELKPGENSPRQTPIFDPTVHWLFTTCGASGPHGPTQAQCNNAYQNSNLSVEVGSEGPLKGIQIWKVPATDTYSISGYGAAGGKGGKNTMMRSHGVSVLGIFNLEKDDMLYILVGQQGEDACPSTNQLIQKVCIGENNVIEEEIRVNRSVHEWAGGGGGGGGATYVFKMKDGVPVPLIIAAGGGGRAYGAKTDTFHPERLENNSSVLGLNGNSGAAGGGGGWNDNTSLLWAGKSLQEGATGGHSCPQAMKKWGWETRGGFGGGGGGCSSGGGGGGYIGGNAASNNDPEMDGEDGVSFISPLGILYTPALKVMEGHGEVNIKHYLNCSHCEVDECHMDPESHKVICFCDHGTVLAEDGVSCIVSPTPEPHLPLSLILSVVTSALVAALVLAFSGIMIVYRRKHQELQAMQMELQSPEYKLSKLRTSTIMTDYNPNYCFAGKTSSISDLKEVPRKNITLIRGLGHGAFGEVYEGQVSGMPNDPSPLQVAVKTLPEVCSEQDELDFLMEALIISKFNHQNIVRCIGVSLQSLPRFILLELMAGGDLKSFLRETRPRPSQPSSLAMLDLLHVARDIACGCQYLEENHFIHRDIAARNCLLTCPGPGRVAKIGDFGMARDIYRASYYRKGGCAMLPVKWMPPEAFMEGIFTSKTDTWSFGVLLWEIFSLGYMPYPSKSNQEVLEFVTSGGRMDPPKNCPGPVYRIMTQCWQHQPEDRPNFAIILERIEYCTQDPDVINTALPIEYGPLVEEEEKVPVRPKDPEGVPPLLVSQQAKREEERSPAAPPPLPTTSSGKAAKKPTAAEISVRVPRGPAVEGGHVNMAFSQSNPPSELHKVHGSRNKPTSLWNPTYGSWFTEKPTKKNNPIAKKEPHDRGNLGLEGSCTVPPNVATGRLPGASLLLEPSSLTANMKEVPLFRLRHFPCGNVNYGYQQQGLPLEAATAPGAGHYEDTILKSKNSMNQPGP
DYRK1B (human), sequence (Q9Y463 whole entry, looked up): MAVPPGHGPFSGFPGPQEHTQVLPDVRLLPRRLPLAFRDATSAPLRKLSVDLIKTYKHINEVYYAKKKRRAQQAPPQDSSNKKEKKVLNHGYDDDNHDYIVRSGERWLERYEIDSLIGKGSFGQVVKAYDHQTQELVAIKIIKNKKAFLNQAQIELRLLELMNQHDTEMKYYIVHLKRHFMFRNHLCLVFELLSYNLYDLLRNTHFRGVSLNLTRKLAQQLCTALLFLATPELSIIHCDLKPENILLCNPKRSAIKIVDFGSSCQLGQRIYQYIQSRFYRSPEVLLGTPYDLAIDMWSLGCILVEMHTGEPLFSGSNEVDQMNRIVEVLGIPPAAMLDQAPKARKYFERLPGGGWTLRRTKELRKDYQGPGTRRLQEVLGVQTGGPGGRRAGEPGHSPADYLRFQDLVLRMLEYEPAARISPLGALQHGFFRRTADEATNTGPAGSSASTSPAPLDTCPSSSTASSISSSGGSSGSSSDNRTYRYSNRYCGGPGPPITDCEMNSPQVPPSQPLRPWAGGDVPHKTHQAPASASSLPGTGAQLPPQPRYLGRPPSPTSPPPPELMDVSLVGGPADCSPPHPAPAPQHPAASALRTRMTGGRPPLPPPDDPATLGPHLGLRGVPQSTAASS
PRKG1 (human), sequence (Q13976 whole entry, looked up): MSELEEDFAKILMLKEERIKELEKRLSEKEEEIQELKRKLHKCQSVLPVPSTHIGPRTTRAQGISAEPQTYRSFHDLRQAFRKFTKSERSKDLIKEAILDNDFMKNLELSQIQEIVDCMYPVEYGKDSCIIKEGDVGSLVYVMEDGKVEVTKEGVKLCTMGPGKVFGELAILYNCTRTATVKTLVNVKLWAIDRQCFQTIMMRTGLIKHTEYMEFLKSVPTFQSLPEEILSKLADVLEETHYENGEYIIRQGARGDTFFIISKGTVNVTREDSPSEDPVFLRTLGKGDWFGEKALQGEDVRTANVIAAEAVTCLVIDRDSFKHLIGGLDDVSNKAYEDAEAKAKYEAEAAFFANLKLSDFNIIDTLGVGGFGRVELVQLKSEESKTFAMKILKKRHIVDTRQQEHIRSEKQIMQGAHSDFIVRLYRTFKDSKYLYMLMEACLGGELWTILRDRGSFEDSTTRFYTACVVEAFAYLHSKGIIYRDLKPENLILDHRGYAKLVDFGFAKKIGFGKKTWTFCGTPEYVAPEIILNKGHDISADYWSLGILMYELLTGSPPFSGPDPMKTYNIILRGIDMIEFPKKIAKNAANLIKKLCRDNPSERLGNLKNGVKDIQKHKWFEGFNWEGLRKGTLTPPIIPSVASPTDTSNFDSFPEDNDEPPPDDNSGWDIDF
CAMK1D (human), sequence (Q8IU85 whole entry, looked up): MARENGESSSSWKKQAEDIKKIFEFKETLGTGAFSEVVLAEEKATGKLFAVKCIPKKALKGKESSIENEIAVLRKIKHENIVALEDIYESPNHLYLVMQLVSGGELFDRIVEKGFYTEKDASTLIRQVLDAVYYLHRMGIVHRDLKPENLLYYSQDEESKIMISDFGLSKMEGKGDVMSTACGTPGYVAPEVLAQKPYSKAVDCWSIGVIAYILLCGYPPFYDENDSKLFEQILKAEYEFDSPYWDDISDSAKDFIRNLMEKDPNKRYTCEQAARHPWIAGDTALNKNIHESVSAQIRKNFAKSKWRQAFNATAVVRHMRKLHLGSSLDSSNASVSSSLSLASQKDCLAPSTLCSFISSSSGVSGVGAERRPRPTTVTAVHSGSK

Q: What does the source list for CN(C)C/C=C/C(=O)Nc1cccc(Nc2ncc3c(n2)N(C)c2ccccc2C(=O)N3C)c1?
A: kinase still bound, per cent of control (ALK (human)): 51%; kinase still bound, per cent of control (ANKK1 (human)): 6%; kinase still bound, per cent of control (AURKB (human)): 0.1%; kinase still bound, per cent of control (CAMK1D (human)): 59%; kinase still bound, per cent of control (CLK4 (human)): 100%; kinase still bound, per cent of control (CSNK2A2 (human)): 87%; kinase still bound, per cent of control (DCLK2 (human)): 0.5%; kinase still bound, per cent of control (DYRK1B (human)): 100%; kinase still bound, per cent of control (EPHA7 (human)): 100%; kinase still bound, per cent of control (EPHB3 (human)): 88%; kinase still bound, per cent of control (FLT3 (human)): 73%; kinase still bound, per cent of control [1]: 9.4%; kinase still bound, per cent of control [2]: 9.2%; kinase still bound, per cent of control (HIPK1 (human)): 76%; kinase still bound, per cent of control (KDR (human)): 90%; kinase still bound, per cent of control (LATS1 (human)): 100%; kinase still bound, per cent of control (MAP4K5 (human)): 75%; kinase still bound, per cent of control (MAPK11 (human)): 89%; kinase still bound, per cent of control (MAPK13 (human)): 61%; kinase still bound, per cent of control (MARK2 (human)): 21%; kinase still bound, per cent of control (MKNK1 (human)): 38%; kinase still bound, per cent of control (MYLK2 (human)): 46%; kinase still bound, per cent of control (NEK1 (human)): 69%; kinase still bound, per cent of control (PAK2 (human)): 67%; kinase still bound, per cent of control (PIP4K2B (human)): 36%; kinase still bound, per cent of control (PLK1 (human)): 22%; kinase still bound, per cent of control (PRKAA1 (human)): 0.45%; kinase still bound, per cent of control (PRKCE (human)): 67%; kinase still bound, per cent of control (PRKG1 (human)): 100%; kinase still bound, per cent of control (PRKX (human)): 100%; kinase still bound, per cent of control (PTK6 (human)): 37%; kinase still bound, per cent of control (RIOK2 (human)): 79%; kinase still bound, per cent of control (ROS1 (human)): 27%; kinase still bound, per cent of control (RPS6KA5 KD1 (human)): 100%; kinase still bound, per cent of control (RPS6KA5 KD2 (human)): 80%; kinase still bound, per cent of control (STK17B (human)): 100%; kinase still bound, per cent of control (STK38L (human)): 54%; kinase still bound, per cent of control (TAOK1 (human)): 0.15%; kinase still bound, per cent of control (TLK2 (human)): 88%; kinase still bound, per cent of control (TYRO3 (human)): 100%

Q: How did the kinase still bound, per cent of control (ALK (human)) turn out when COc1cc(C(=O)NC2CCN(C)CC2)ccc1Nc1ncc2c(n1)N(C1CCCC1)C(C)CC(=O)N2C (stereo not given) was run?
A: 6.2%

Q: And the kinase still bound, per cent of control (ANKK1 (human))?
A: 100%

Q: And the kinase still bound, per cent of control (AURKB (human))?
A: 100%

Q: What about the kinase still bound, per cent of control (CAMK1D (human)) of the same compound?
A: 17%

Q: What about the kinase still bound, per cent of control (CLK4 (human)) of the same compound?
A: 100%

Q: What about the kinase still bound, per cent of control (CSNK2A2 (human)) of the same compound?
A: 100%

Q: And the kinase still bound, per cent of control (DCLK2 (human))?
A: 19%

Q: What about the kinase still bound, per cent of control (DYRK1B (human)) of the same compound?
A: 100%

Q: What about the kinase still bound, per cent of control (EPHA7 (human)) of the same compound?
A: 100%

Q: And the kinase still bound, per cent of control (EPHB3 (human))?
A: 100%

Q: And the kinase still bound, per cent of control (FLT3 (human))?
A: 100%

Q: What about the kinase still bound, per cent of control [1] of the same compound?
A: 100%

Q: What about the kinase still bound, per cent of control [2] of the same compound?
A: 100%

Q: And the kinase still bound, per cent of control (HIPK1 (human))?
A: 100%

Q: And the kinase still bound, per cent of control (KDR (human))?
A: 100%

Q: And the kinase still bound, per cent of control (LATS1 (human))?
A: 100%

Q: And the kinase still bound, per cent of control (MAP4K5 (human))?
A: 100%

Q: And the kinase still bound, per cent of control (MAPK11 (human))?
A: 100%

Q: And the kinase still bound, per cent of control (MAPK13 (human))?
A: 100%

Q: What about the kinase still bound, per cent of control (MARK2 (human)) of the same compound?
A: 100%

Q: What about the kinase still bound, per cent of control (MKNK1 (human)) of the same compound?
A: 100%

Q: What about the kinase still bound, per cent of control (MYLK2 (human)) of the same compound?
A: 100%

Q: And the kinase still bound, per cent of control (NEK1 (human))?
A: 100%

Q: And the kinase still bound, per cent of control (PAK2 (human))?
A: 100%

Q: What about the kinase still bound, per cent of control (PIP4K2B (human)) of the same compound?
A: 100%

Q: And the kinase still bound, per cent of control (PLK1 (human))?
A: 19%

Q: What about the kinase still bound, per cent of control (PRKAA1 (human)) of the same compound?
A: 100%

Q: What about the kinase still bound, per cent of control (PRKCE (human)) of the same compound?
A: 100%

Q: What about the kinase still bound, per cent of control (PRKG1 (human)) of the same compound?
A: 100%

Q: What about the kinase still bound, per cent of control (PRKX (human)) of the same compound?
A: 100%

Q: What about the kinase still bound, per cent of control (PTK6 (human)) of the same compound?
A: 100%

Q: And the kinase still bound, per cent of control (RIOK2 (human))?
A: 100%

Q: What about the kinase still bound, per cent of control (ROS1 (human)) of the same compound?
A: 100%

Q: What about the kinase still bound, per cent of control (RPS6KA5 KD1 (human)) of the same compound?
A: 100%

Q: What about the kinase still bound, per cent of control (RPS6KA5 KD2 (human)) of the same compound?
A: 100%

Q: And the kinase still bound, per cent of control (STK17B (human))?
A: 100%

Q: What about the kinase still bound, per cent of control (STK38L (human)) of the same compound?
A: 100%

Q: And the kinase still bound, per cent of control (TAOK1 (human))?
A: 100%

Q: And the kinase still bound, per cent of control (TLK2 (human))?
A: 100%

Q: And the kinase still bound, per cent of control (TYRO3 (human))?
A: 100%
